The values below come from US11453683B1, “KRas G12D inhibitors” (Mirati Therapeutics, Inc., priority 2019, dated 2022).

pIC50: −log10 of the molar value.

This experiment concerns KRas G12D-mediated phosphorylation of ERK. The experiment in a line: Inhibition of KRas G12D-mediated phosphorylation of ERK in AGS cells. The class given is cell-based. The following applies: Homo sapiens; AGS cells expressing G12D, 3 hours, phospho-ERK normalized to GAPDH. The procedure, abridged:
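In-cell Western: p-ERK Thr202/Tyr204 signal over GAPDH, as % of DMSO control, with IC50 from a 4-parameter curve. AGS cells seeded 40,000/well for 12-14 h, exposed to compound 3 h at 0.5% DMSO final, then formaldehyde-fixed and methanol-permeabilized.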

What is called pIC50 is the negative decadic logarithm of the IC50, by convention in mol/L. Read a low pIC50 as a high IC50.

`Oc1cc(-c2ncc3c(N4C[C@H]5CC[C@@H](C4)N5)nc(N4CC5(CCOCC5)C4)nc3c2F)c2ccccc2c1` [Example 74, 4-(4-((1R,5S)-3,8-diazabicyclo[3.2.1]octan-3-yl)-8-fluoro-2-(7-oxa-2-azaspiro[3.5]nonan-2-yl)pyrido[4,3-d]pyrimidin-7-yl)naphthalen-2-ol] gave a pIC50 of 5.26.

`Fc1c(-c2cccc(Cl)c2C2CC2)ncc2c(N3C[C@H]4CC[C@@H](C3)N4)nc(OCC34CCCN3CCC4)nc12` [Example 322, 4-((1R,5S)-3,8-diazabicyclo[3.2.1]octan-3-yl)-7-(3-chloro-2-cyclopropylphenyl)-8-fluoro-2-((tetrahydro-1H-pyrrolizin-7a(5H)-yl)methoxy)pyrido[4,3-d]pyrimidine] showed a negative-log IC50 (pIC50) of 6.18. This pIC50 is 0.92 log units higher than that of the compound before. Under `Oc1cc(-c2ncc3c(N4C[C@H]5CC[C@@H](C4)N5)ncnc3c2F)c2ccccc2c1` [Example 181, 4-(4-((1R,5S)-3,8-diazabicyclo[3.2.1]octan-3-yl)-8-fluoropyrido[4,3-d]pyrimidin-7-yl)naphthalen-2-ol] stands 4.89; under `CN(C)Cc1ccc(COCCNC(=O)O[C@@H]2C[C@@H](COc3nc(N4C[C@H]5CC[C@@H](C4)N5)c4cnc(-c5cccc6cccc(Cl)c56)c(F)c4n3)N(C)C2)cc1` [Example 308, (3R,5S)-5-(((4-((1R,5S)-3,8-diazabicyclo[3.2.1]octan-3-yl)-7-(8-chloronaphthalen-1-yl)-8-fluoropyrido[4,3-d]pyrimidin-2-yl)oxy)methyl)-1-methylpyrrolidin-3-yl (2-((4-((dimethylamino)methyl)benzyl)oxy)ethyl)carbamate], < 5.26; under `CSc1cccc2cccc(-c3ncc4c(N5C[C@H]6CC[C@@H](C5)N6)nc(OCC56CCCN5CCC6)nc4c3F)c12` [Example 199, 4-((1R,5S)-3,8-diazabicyclo[3.2.1]octan-3-yl)-8-fluoro-7-(8-(methylthio)naphthalen-1-yl)-2-((tetrahydro-1H-pyrrolizin-7a(5H)-yl)methoxy)pyrido[4,3-d]pyrimidine], 6.33. Then `C#Cc1cccc2cccc(-c3ncc4c(N5C[C@H]6CC[C@@H](C5)N6)nc(OCC56CCCN5CCC6)nc4c3F)c12` [Example 179, 4-((1R,5S)-3,8-diazabicyclo[3.2.1]octan-3-yl)-7-(8-ethynylnaphthalen-1-yl)-8-fluoro-2-((hexahydro-1H-pyrrolizin-7a-yl)methoxy)pyrido[4,3-d]pyrimidine], with 7.15. Take `N#CC[C@@H]1C[C@@H]2CN(c3nc(OCC45CCCN4CCC5)nc4c(F)c(-c5cc(O)cc6ccccc56)ncc34)C[C@H]1N2` [Example 338, 2-((1R,5S,6S)-3-(8-fluoro-7-(3-hydroxynaphthalen-1-yl)-2-((tetrahydro-1H-pyrrolizin-7a(5H)-yl)methoxy)pyrido[4,3-d]pyrimidin-4-yl)-3,8-diazabicyclo[3.2.1]octan-6-yl)acetonitrile]: the pIC50 was < 4.78.

For the compound `[O-][S+]1CCC(Oc2nc(N3C[C@H]4CC[C@@H](C3)N4)c3cnc(-c4cc(O)cc5ccccc45)c(F)c3n2)CC1` (stereo partly drawn) [Example 82, 4-((4-((1R,5S)-3,8-diazabicyclo[3.2.1]octan-3-yl)-8-fluoro-7-(3-hydroxynaphthalen-1-yl)pyrido[4,3-d]pyrimidin-2-yl)oxy)tetrahydro-2H-thiopyran 1-oxide], the negative-log IC50 (pIC50) is < 4.78. For the compound `Cc1cccc(-c2ncc3c(N4C[C@H]5CC[C@@H](C4)N5)nc(OCC45CCCN4CCC5)nc3c2F)c1C(C)C` [Example 301, 4-((1R,5S)-3,8-diazabicyclo[3.2.1]octan-3-yl)-8-fluoro-2-((hexahydro-1H-pyrrolizin-7a-yl)methoxy)-7-(2-isopropyl-3-methylphenyl)pyrido[4,3-d]pyrimidine], the pIC50 is 5.50. Under `Fc1c(-c2cccc3cccc(CC(F)F)c23)ncc2c(N3C[C@H]4CC[C@@H](C3)N4)nc(OCC34CCCN3CCC4)nc12` [Example 247, 4-((1R,5S)-3,8-diazabicyclo[3.2.1]octan-3-yl)-7-(8-(2,2-difluoroethyl)naphthalen-1-yl)-8-fluoro-2-((hexahydro-1H-pyrrolizin-7a-yl)methoxy)pyrido[4,3-d]pyrimidine] stands 5.37; under `CN1CCC[C@H]1COc1nc(N2CC3CCC(C2)N3)c2cnc(-c3c(Cl)c(O)cc4ccccc34)c(F)c2n1` [Example 337, 4-(4-(3,8-diazabicyclo[3.2.1]octan-3-yl)-8-fluoro-2-(((S)-1-methylpyrrolidin-2-yl)methoxy)pyrido[4,3-d]pyrimidin-7-yl)-3-chloronaphthalen-2-ol], 5.79; under `CN1CCC[C@H]1COc1nc(N2C[C@H]3CC[C@@H](C2)N3)c2cnc(-c3cccc4c3C(C)(C)CC4)c(F)c2n1` [Example 161, 4-((1R,5S)-3,8-diazabicyclo[3.2.1]octan-3-yl)-7-(3,3-dimethyl-2,3-dihydro-1H-inden-4-yl)-8-fluoro-2-(((S)-1-methylpyrrolidin-2-yl)methoxy)pyrido[4,3-d]pyrimidine bis(2,2,2-trifluoroacetate)], < 4.78. Take `Fc1c(-c2cccc3cccc(Cl)c23)ncc2c(N3CC4CCC(C3)N4)nc(OC[C@@]34CCCN3C[C@H](F)C4)nc12` (stereo in doubt) [Example 134, 4-((1R,5S)-3,8-diazabicyclo[3.2.1]octan-3-yl)-7-(8-chloronaphthalen-1-yl)-8-fluoro-2-((2-fluorotetrahydro-1H-pyrrolizin-7a(5H)-yl)methoxy)pyrido[4,3-d]pyrimidine]: the pIC50 was 6.05. Under `N#Cc1cccc2cccc(-c3ncc4c(N5C[C@H]6CC[C@@H](C5)N6)nc(OCC56CCCN5CCC6)nc4c3F)c12` [Example 198, 8-(4-((1R,5S)-3,8-diazabicyclo[3.2.1]octan-3-yl)-8-fluoro-2-((tetrahydro-1H-pyrrolizin-7a(5H)-yl)methoxy)pyrido[4,3-d]pyrimidin-7-yl)-1-naphthonitrile] stands 5.62; under `Oc1cc(-c2ncc3c(N4C[C@H]5CC[C@@H](C4)N5)nc(OCCC(F)(F)F)nc3c2F)c2c(Cl)cccc2c1` [Example 393, 4-(4-((1R,5S)-3,8-diazabicyclo[3.2.1]octan-3-yl)-8-fluoro-2-(3,3,3-trifluoropropoxy)pyrido[4,3-d]pyrimidin-7-yl)-5-chloronaphthalen-2-ol], 5.12.

`O=C(OC[C@H]1CC[C@@]2(COc3nc(N4CC5CCC(C4)N5)c4cnc(-c5cccc6cccc(Cl)c56)c(F)c4n3)CCCN12)N1CCOCC1` [Example 445, ((3R,7aR)-7a-(((4-(3,8-diazabicyclo[3.2.1]octan-3-yl)-7-(8-chloronaphthalen-1-yl)-8-fluoropyrido[4,3-d]pyrimidin-2-yl)oxy)methyl)hexahydro-1H-pyrrolizin-3-yl)methyl morpholine-4-carboxylate] showed a pIC50 of 6.89. Then `COc1nc(N2C[C@H]3CC[C@@H](C2)N3)c2cnc(-c3cc(O)cc4cccc(Cl)c34)c(F)c2n1` [Example 360, 4-(4-((1R,5S)-3,8-diazabicyclo[3.2.1]octan-3-yl)-8-fluoro-2-methoxypyrido[4,3-d]pyrimidin-7-yl)-5-chloronaphthalen-2-ol], with 5.08.
